Measurements as given in PMC11229689, “In Vitro Selection of Macrocyclic L-α/D-α/β/γ-Hybrid Peptides Targeting IFN-γ/IFNGR1 Protein–Protein Interaction” (Journal of the American Chemical Society, 2024).
Where two headings read alike, the source gives them in different places. *1 amine or outer side, *2 acyl side, *3 side chain or, on linkers, in order; H or OH if unused. Where a SMILES comes first, the peptide text is derived from it. Bridges are numbered along the chain shown (N, C = ends). [ ]: non-standard residue; d: D form. Acbc(trans-1,3) = O=C([C@H]1C[C@H](N[*:1])C1)[*:2]; Acbc(cis-1,3) = O=C([C@H]1C[C@@H](N[*:1])C1)[*:2]; X1 = O=C([C@@H]1CCC[C@@H]1N[*:1])[*:2]

Tests used:
[1] = biological target: T1, Fc-tagged human IFNGR1 (Homo sapiens, UniProt P15260); test: Binding kinetics and affinity to IFNGR1 by surface plasmon resonance (SPR); conditions: for kon: read-out: ka
T1 construct: purchased ACROBiosystems
T1 sequence (P15260 18-489): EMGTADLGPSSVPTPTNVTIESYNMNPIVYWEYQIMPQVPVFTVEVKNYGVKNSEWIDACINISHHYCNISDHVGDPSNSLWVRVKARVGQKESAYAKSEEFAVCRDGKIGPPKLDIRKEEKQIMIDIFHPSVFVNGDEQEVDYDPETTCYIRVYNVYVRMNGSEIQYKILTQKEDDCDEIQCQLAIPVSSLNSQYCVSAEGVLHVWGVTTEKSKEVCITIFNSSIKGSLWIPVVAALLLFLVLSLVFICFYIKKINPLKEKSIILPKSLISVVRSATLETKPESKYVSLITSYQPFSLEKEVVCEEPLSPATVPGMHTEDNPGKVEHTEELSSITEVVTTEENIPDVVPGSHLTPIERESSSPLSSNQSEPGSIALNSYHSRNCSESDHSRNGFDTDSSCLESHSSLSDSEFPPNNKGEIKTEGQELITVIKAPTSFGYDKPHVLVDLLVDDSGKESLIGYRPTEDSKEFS
Protocol: (§1) Binding affinities of IA1 and IA2 against IFNGR1 were evaluated by surface plasmon resonance (SPR) (Table 1 and SI Figure S6A). […] To investigate the contribution of the N-terminal [yVPβ^1RR] motif and β^1 residue in IA1, three scrambled peptides IA1s1–3 and a variant IA1β^14A were synthesized and evaluated. […] We next evaluated inhibitory activities of IA1 and IA2 against the ligand–receptor PPI between IFN-γ and IFNGR1 using AlphaLISA (Table 1 and SI Figure S7).[37] […] We also determined the serum half-lives of IA1 and IA2, considering peptidase resistance as an important factor for therapeutic peptides.[24] A sample peptide and a peptidase-resistant internal standard peptide were coincubated in human serum at 37 °C, and the relative amount of the remaining sample peptide was estimated by LC/MS. […]
Evaluation of binding affinity of peptides by surface plasmon resonance The binding affinities of selected peptides and IFNGR1 were analyzed by surface plasmon resonance (SPR) using a Biacore T200 instrument (Cytiva) at 25 °C with the following running buffer: 10 mM Tris-HCl (pH 8.0), 150 mM NaCl, 0.05% (v/v) Tween 20 , and 0.1% (v/v) DMSO. Fc-tagged IFNGR1 was immobilized on a series S sensor chip protein G (Cytiva) to a surface density of 1,200–1,600 response units following the immobilization protocols provided by Cytiva. The kinetic constants were determined by a single-cycle kinetics method by the injection of five different concentrations (twofold dilution series) of each peptide at a flow rate of 30 μL/min. The resulting sensorgrams were fitted to the standard 1:1 interaction model and analyzed using Biacore evaluation software. […]

[2] = Serum stability assay (LC/MS); type: in vitro ADME, human; conditions: human serum, 37 °C, LC/MS, relative to internal standard peptide, n = 3, read-out: half-life in human serum (t1/2) (converted)
Protocol: as §1
10–200 μM synthetic peptide and 5 μM serum-resistant internal standard peptide consisting only of D-amino acids (NH2-PEG5-wstndwstnd-PEG5-CONH2)3 were mixed and incubated in human serum (Cosmo Bio, 12181201) at 37 °C for up to 120 h. At each time point, 4 μL of the mixture was removed and quenched by adding 12 μl methanol. Following centrifugation (15,000 g, 4 °C, 5 min), 10 μL of the supernatant was mixed with 40 μl of 1% (v/v) TFA. Following centrifugation (15,000 g, 4 °C, 5 min), the supernatant was collected for LC/MS analysis, which used a reverse-phase column (ACQUITY UPLC BEH C18, 1.7 μm, 2.1 × 150 mm; Waters) and a Xevo G2-XS QTof system (Waters) with a linear gradient from 1% B to 61% B. Buffer A was water with 0.1% (v/v) formic acid; buffer B was acetonitrile with 0.1% (v/v) formic acid. The percentages of remaining peptides were determined by the peak area integration of the chromatograms. For tandem mass spectrometry, MS/MS spectra were acquired with a 0.2 s scan time, with 10−30 eV collision energy. The obtained LC/MS data was analyzed using MassLynx 4.1 (Waters). […]

[3] = SPR, 25 °C, 1:1 binding model, read-out: KD
[4] = SPR, 25 °C, single-cycle kinetics, 1:1 binding model

Row | Structure (SMILES) | Kd [1, 3] | kon [1, 4] | half-life ([2]; human) | half-life [2] | Kd [1] | kon [1]
1 | CC(C)[C@@H]1NC(=O)[C@@H](Cc2ccc(O)cc2)NC(=O)CSC[C@H](C(N)=O)NC(=O)[C@H]([C@@H](C)O)NC(=O)[C@H](CC(N)=O)NC(=O)[C@H](Cc2c[nH]cn2)NC(=O)[C@H](CC(N)=O)NC(=O)[C@H](CCCNC(=N)N)NC(=O)[C@H](Cc2c[nH]cn2)NC(=O)[C@H]2C[C@H](C2)NC(=O)[C@H](CO)NC(=O)[C@H](CCCNC(=N)N)NC(=O)[C@H](CCCNC(=N)N)NC(=O)[C@@H]2CCC[C@@H]2NC(=O)[C@@H]2CCCN2C1=O [IA1s2, ^AcyVPβ^1RRSγ^1HRNHNTc-NH2] ({CH2CO}-[dY]VP[X1]RRS[Acbc(cis-1,3)]HRNHNT[dC]-NH2; thioether N-15) | 2200 ± 200 nM | 2200 ± 200 M⁻¹ s⁻¹ |  |  |  | 
2 | CC(C)[C@@H]1NC(=O)[C@H](Cc2ccc(O)cc2)NC(=O)CSC[C@@H](C(N)=O)NC(=O)[C@H](CC(N)=O)NC(=O)[C@H](CO)NC(=O)[C@H](CCCNC(=N)N)NC(=O)[C@H]2C[C@H](C2)NC(=O)[C@H](Cc2c[nH]cn2)NC(=O)[C@H](CC(N)=O)NC(=O)[C@H]([C@@H](C)O)NC(=O)[C@H](Cc2c[nH]cn2)NC(=O)[C@H](CCCNC(=N)N)NC(=O)[C@H](CCCNC(=N)N)NC(=O)[C@@H]2CCC[C@@H]2NC(=O)[C@@H]2CCCN2C1=O [IA1YC, ^AcYVPβ^1RRHTNHγ^1RSNC-NH2] ({CH2CO}-YVP[X1]RRHTNH[Acbc(cis-1,3)]RSNC-NH2; thioether N-15) | 1400 ± 200 nM | 3600 ± 100 M⁻¹ s⁻¹ | 156 ± 6 min |  |  | 
3 | CC(C)[C@@H]1NC(=O)[C@@H](Cc2ccc(O)cc2)NC(=O)CSC[C@H](C(N)=O)NC(=O)[C@H](CC(N)=O)NC(=O)[C@H](CO)NC(=O)[C@H](CCCNC(=N)N)NC(=O)[C@H]2C[C@H](C2)NC(=O)[C@H](Cc2c[nH]cn2)NC(=O)[C@H](CC(N)=O)NC(=O)[C@H]([C@@H](C)O)NC(=O)[C@H](Cc2c[nH]cn2)NC(=O)[C@H](CCCNC(=N)N)NC(=O)[C@H](CCCNC(=N)N)NC(=O)[C@H](C)NC(=O)[C@@H]2CCCN2C1=O [IA1β^14A, ^AcyVPA RRHTNHγ^1RSNc-NH2] ({CH2CO}-[dY]VPARRHTNH[Acbc(cis-1,3)]RSN[dC]-NH2; thioether N-15) | > 10000 nM |  | 42.6 ± 6 min |  |  | 
4 | CC(C)[C@@H]1NC(=O)[C@H](CCCNC(=N)N)NC(=O)[C@@H]2CCC[C@@H]2NC(=O)[C@@H](Cc2ccc(O)cc2)NC(=O)CSC[C@H](C(N)=O)NC(=O)[C@H](CC(N)=O)NC(=O)[C@H](CO)NC(=O)[C@H](CCCNC(=N)N)NC(=O)[C@H]2C[C@H](C2)NC(=O)[C@H](Cc2c[nH]cn2)NC(=O)[C@H](CC(N)=O)NC(=O)[C@H]([C@@H](C)O)NC(=O)[C@H](Cc2c[nH]cn2)NC(=O)[C@H](CCCNC(=N)N)NC(=O)[C@@H]2CCCN2C1=O [IA1s3, ^Acyβ^1RVPRHTNHγ^1RSNc-NH2] ({CH2CO}-[dY][X1]RVPRHTNH[Acbc(cis-1,3)]RSN[dC]-NH2; thioether N-15) | > 10000 nM |  |  |  |  | 
5 | CC(C)[C@@H]1NC(=O)[C@H](Cc2ccc(O)cc2)NC(=O)CSC[C@@H](C(N)=O)NC(=O)[C@H](CC(N)=O)NC(=O)[C@H]2C[C@@H](C2)NC(=O)[C@H](CCCNC(=N)N)NC(=O)[C@@H]2CCCN2C(=O)[C@H]([C@@H](C)O)NC(=O)[C@H](CCCNC(=N)N)NC(=O)[C@H](CCCNC(=N)N)NC(=O)[C@H](CO)NC(=O)[C@H](CCCNC(=N)N)NC(=O)[C@H](CCCNC(=N)N)NC(=O)[C@@H]2CCC[C@@H]2NC(=O)[C@@H]2CCCN2C1=O [IB4YC, ^AcYVPβ^1RRSRRTPRγ^2NC-NH2] ({CH2CO}-YVP[X1]RRSRRTPR[Acbc(trans-1,3)]NC-NH2; thioether N-15) | 45 ± 5 nM | 58000 ± 11000 M⁻¹ s⁻¹ | 55.2 ± 6.6 min |  |  | 
6 | CC(C)[C@@H]1NC(=O)[C@H](Cc2ccc(O)cc2)NC(=O)CSC[C@@H](C(N)=O)NC(=O)[C@H](CCCNC(=N)N)NC(=O)[C@H](CO)NC(=O)[C@H](CCCNC(=N)N)NC(=O)[C@H](Cc2c[nH]cn2)NC(=O)CNC(=O)[C@H]2C[C@H](C2)NC(=O)[C@H](Cc2c[nH]cn2)NC(=O)[C@H](CC(N)=O)NC(=O)[C@H](CCCNC(=N)N)NC(=O)[C@H](CCCNC(=N)N)NC(=O)[C@@H]2CCC[C@@H]2NC(=O)[C@H](C)NC1=O [IB1YC, ^AcYVAβ^1RRNHγ^1GHRSRC-NH2] ({CH2CO}-YVA[X1]RRNH[Acbc(cis-1,3)]GHRSRC-NH2; thioether N-15) | 1700 ± 200 nM | 2200 ± 300 M⁻¹ s⁻¹ |  |  |  | 
7 | CC(C)[C@@H]1NC(=O)[C@@H](Cc2ccc(O)cc2)NC(=O)CSC[C@H](C(N)=O)NC(=O)[C@H](CC(N)=O)NC(=O)[C@H](Cc2c[nH]cn2)NC(=O)[C@H](CCCNC(=N)N)NC(=O)[C@H]2C[C@@H](C2)NC(=O)[C@H]([C@@H](C)O)NC(=O)[C@H](Cc2c[nH]cn2)NC(=O)[C@@H]2CCCN2C(=O)[C@H](CO)NC(=O)[C@H](CCCNC(=N)N)NC(=O)[C@H](CCCNC(=N)N)NC(=O)[C@H](C)NC(=O)[C@@H]2CCCN2C1=O [IB5β^14A, ^AcyVPA RRSPHTγ^2RHNc-NH2] ({CH2CO}-[dY]VPARRSPHT[Acbc(trans-1,3)]RHN[dC]-NH2; thioether N-15) | > 10000 nM |  | 24.6 ± 1.8 min |  |  | 
8 | CC(C)[C@@H]1NC(=O)[C@H](Cc2ccc(O)cc2)NC(=O)CSC[C@@H](C(N)=O)NC(=O)[C@H](CC(N)=O)NC(=O)[C@H](Cc2c[nH]cn2)NC(=O)[C@H](CCCNC(=N)N)NC(=O)[C@H]2C[C@@H](C2)NC(=O)[C@H]([C@@H](C)O)NC(=O)[C@H](Cc2c[nH]cn2)NC(=O)[C@@H]2CCCN2C(=O)[C@H](CO)NC(=O)[C@H](CCCNC(=N)N)NC(=O)[C@H](CCCNC(=N)N)NC(=O)[C@@H]2CCC[C@@H]2NC(=O)[C@@H]2CCCN2C1=O [IB5YC, ^AcYVPβ^1RRSPHTγ^2RHNC-NH2] ({CH2CO}-YVP[X1]RRSPHT[Acbc(trans-1,3)]RHNC-NH2; thioether N-15) | 1900 ± 100 nM | 16000 ± 1000 M⁻¹ s⁻¹ | 840 ± 120 min |  |  | 
9 | CC(C)[C@@H]1NC(=O)[C@@H]2CCC[C@@H]2NC(=O)[C@H](CCCNC(=N)N)NC(=O)[C@H](Cc2c[nH]cn2)NC(=O)[C@@H]2CCCN2C(=O)[C@H](CCCNC(=N)N)NC(=O)[C@H]2C[C@H](C2)NC(=O)[C@H]([C@@H](C)O)NC(=O)[C@H](CCCNC(=N)N)NC(=O)[C@H](CC(N)=O)NC(=O)[C@H](CO)NC(=O)[C@@H](Cc2ccc(O)cc2)NC(=O)CSC[C@H](C(N)=O)NC(=O)[C@H](Cc2c[nH]cn2)NC(=O)[C@H](CC(N)=O)NC1=O [IA1s1, ^AcySNRTγ^1RPHRβ^1VNHc-NH2] ({CH2CO}-[dY]SNRT[Acbc(cis-1,3)]RPHR[X1]VNH[dC]-NH2; thioether N-15) | > 10000 nM |  |  |  |  | 
10 | CC(C)[C@@H]1NC(=O)[C@@H](Cc2ccc(O)cc2)NC(=O)CSC[C@H](C(N)=O)NC(=O)[C@H](CC(N)=O)NC(=O)[C@H]2C[C@@H](C2)NC(=O)[C@H](CCCNC(=N)N)NC(=O)[C@@H]2CCCN2C(=O)[C@H]([C@@H](C)O)NC(=O)[C@H](CCCNC(=N)N)NC(=O)[C@H](CCCNC(=N)N)NC(=O)[C@H](CO)NC(=O)[C@H](CCCNC(=N)N)NC(=O)[C@H](CCCNC(=N)N)NC(=O)[C@H](C)NC(=O)[C@@H]2CCCN2C1=O [IB4β^14A, ^AcyVPA RRSRRTPRγ^2Nc-NH2] ({CH2CO}-[dY]VPARRSRRTPR[Acbc(trans-1,3)]N[dC]-NH2; thioether N-15) |  |  |  | 30 ± 1.8 min | 420 ± 120 nM | 8900 ± 2100 M⁻¹ s⁻¹
